In PMC10689823, “Discovery of a Drug-like, Natural Product-Inspired DCAF11 Ligand Chemotype” (Nature Communications, 2023):

Molecular target: BRD4S-TagBFP reporter (Homo sapiens, UniProt O60885)
Assay: FACS-based CRISPR/Cas9 BRD4 protein stability screen
Conditions: Mageck_Gene level
Method: The virus containing supernatant was cleared of cellular debris by filtration through a 0.45-µm PES filter and used to transduce KBM7 BRD4-BFP reporter cells harboring a doxycycline inducible Cas9 allele at a multiplicity of infection (MOI) of 0.05 and 1,000-fold library representation. Library-transduced cells were selected with G418 (1 mg ml^−1, Gibco) for 14 days, expanded and Cas9 expression was induced with DOX (0.4 µg ml^−1, PanReac AppliChem).
Cells were washed with and stored in FACS buffer (PBS containing 5% FBS and 1 mM EDTA) at 4 °C overnight. The next day, cells were strained trough a 35 µm nylon mesh and sorted on a BD FACSAria™ Fusion (BD Biosciences) using a 85 µm nozzle. Aggregates, dead (ZombieNIR positive), Cas9-negative (GFP) and sgRNA library-negative (Thy1.1-APC) cells were excluded, and the remaining cells were sorted based on their BRD4-BFP and mCherry levels into BRD4^HIGH (10% of cells), BRD4^MID (30%) and BRD4^LOW (10%) fractions. For each sample, cells corresponding to at least 2,000-fold library representation were sorted per replicate.
Next-generation sequencing (NGS) libraries of sorted cell fractions were prepared as previously described[25]. In brief, genomic DNA was isolated by cell lysis (10 mM Tris-HCl, 150 mM NaCl, 10 mM EDTA, 0.1% SDS), proteinase K treatment (New England Biolabs) and DNAse-free RNAse digest (Thermo Fisher Scientific), followed by two rounds of phenol extraction and 2-propanol precipitation. Isolated genomic DNA was subjected to several freeze–thaw cycles before nested polymerase chain reaction (PCR) amplification of the sgRNA cassette.
Barcoded NGS libraries for each sorted population were generated using a two-step PCR protocol using AmpliTaq Gold (Invitrogen). The resulting PCR products were purified using Mag-Bind® TotalPure NGS beads (Omega Bio-tek) and amplified in a second PCR introducing the standard Illumina adapters. The final Illumina libraries were bead-purified, pooled and sequenced on a HiSeq 3500 platform (Illumina).
Screen analysis was performed as previously described[25]. Briefly, sequencing reads were quantified using the crispr-process-nf Nextflow workflow, available at https://github.com/ZuberLab/crispr-process-nf/tree/566f6d46bbcc2a3f49f51bbc96b9820f408ec4a3. For statistical analysis, we used the crispr-mageck-nf Nextflow workflow, available at https://github.com/ZuberLab/crispr-mageck-nf/tree/c75a90f670698bfa78bfd8be786d6e5d6d4fc455. To calculate gene-level enrichment, the sorted populations (BRD4^HIGH or BRD4^LOW) were compared to the BRD4^MID populations in MAGeCK (0.5.9)[46], using median normalized read counts.

Structure (SMILES): Cc1sc2c(c1C)C(c1ccc(Cl)cc1)=NC(CC(=O)NCCOCCOCCOCCOc1c(Br)cc(C=C3C(=O)Nc4ccc(Br)cc43)cc1Br)c1nnc(C)n1-2 (centres unmarked) [Compound 10]
- High_lfc (Gene DCAF1): 0.07
- High_logP (Gene DCAF1): 0.4
- Low_lfc (Gene DCAF1): 0.08
- Low_logP (Gene DCAF1): 0.47
- High_lfc (Gene DCAF4): 0.04
- High_logP (Gene DCAF4): 0.26
- Low_lfc (Gene DCAF4): 0.5
- Low_logP (Gene DCAF4): 1.14
- High_lfc (Gene DCAF5): -0.31
- High_logP (Gene DCAF5): 0.03
- Low_lfc (Gene DCAF5): -0.2
- Low_logP (Gene DCAF5): 0.09
- High_lfc (Gene DCAF6): -0.27
- High_logP (Gene DCAF6): 0.06
- Low_lfc (Gene DCAF6): 0.14
- Low_logP (Gene DCAF6): 0.62
- High_lfc (Gene DCAF7): -0.06
- High_logP (Gene DCAF7): 0.19
- Low_lfc (Gene DCAF7): 0.05
- Low_logP (Gene DCAF7): 0.29
- High_lfc (Gene DCAF8): -0.08
- High_logP (Gene DCAF8): 0.19
- Low_lfc (Gene DCAF8): 0.22
- Low_logP (Gene DCAF8): 0.46
- High_lfc (Gene DCAF12): -0.19
- High_logP (Gene DCAF12): 0
- Low_lfc (Gene DCAF12): -0.38
- Low_logP (Gene DCAF12): 0
- High_lfc (Gene DCAF13): -0.32
- High_logP (Gene DCAF13): 0.14
- Low_lfc (Gene DCAF13): -0.17
- Low_logP (Gene DCAF13): 0.23
- High_lfc (Gene DCAF15): 0.02
- High_logP (Gene DCAF15): 0.29
- Low_lfc (Gene DCAF15): 0.34
- High_lfc (Gene DCAF16): 0.41
- High_logP (Gene DCAF16): 1.29
- Low_lfc (Gene DCAF16): 0.15
- Low_logP (Gene DCAF16): 0.08
- High_lfc (Gene DCAF17): -0.4
- High_logP (Gene DCAF17): 0.08
- Low_lfc (Gene DCAF17): -0.25
- Low_logP (Gene DCAF17): 0.08
- High_lfc (Gene DCUN1D1): -0.16
- High_logP (Gene DCUN1D1): 0.04
- Low_lfc (Gene DCUN1D1): -0.14
- Low_logP (Gene DCUN1D1): 0.41
- High_lfc (Gene DCUN1D2): -0.24
- High_logP (Gene DCUN1D2): 0.01
- Low_lfc (Gene DCUN1D2): 0.34
- Low_logP (Gene DCUN1D2): 0.85
- High_lfc (Gene DCUN1D3): 0.11
- High_logP (Gene DCUN1D3): 0.22
- Low_lfc (Gene DCUN1D3): 0.24
- Low_logP (Gene DCUN1D3): 1.2
- High_lfc (Gene DCUN1D4): -0.01
- High_logP (Gene DCUN1D4): 0.07
- Low_lfc (Gene DCUN1D4): 0.03
- Low_logP (Gene DCUN1D4): 0.28
- High_lfc (Gene DCUN1D5): 0.22
- High_logP (Gene DCUN1D5): 0.38
- Low_lfc (Gene DCUN1D5): -0.23
- Low_logP (Gene DCUN1D5): 0.04
- High_lfc (Gene DDA1): 0.21
- High_logP (Gene DDA1): 0.55
- Low_lfc (Gene DDA1): -0.07
- Low_logP (Gene DDA1): 0.09
- High_lfc (Gene DDB1): 1.6
- Low_lfc (Gene DDB1): -0.07
- Low_logP (Gene DDB1): 0.14
- High_lfc (Gene DDB2): -0.17
- High_logP (Gene DDB2): 0.1
- Low_lfc (Gene DDB2): 0.02
- Low_logP (Gene DDB2): 0.41
- High_lfc (Gene DET1): 0.13
- High_logP (Gene DET1): 0.2
- Low_lfc (Gene DET1): 0.1
- Low_logP (Gene DET1): 0.55
- High_lfc (Gene DHX15): 0.88
- High_logP (Gene DHX15): 3.08
- Low_lfc (Gene DHX15): 0.33
- Low_logP (Gene DHX15): 0.15
- High_lfc (Gene DTL): -0.32
- High_logP (Gene DTL): 0.12
- Low_lfc (Gene DTL): 0.6
- Low_logP (Gene DTL): 1.9
- High_lfc (Gene ECT2L): 0.08
- High_logP (Gene ECT2L): 0.35
- Low_lfc (Gene ECT2L): 0.18
- Low_logP (Gene ECT2L): 0.73
- High_lfc (Gene EED): -0.14
- High_logP (Gene EED): 0.1
- Low_lfc (Gene EED): -0.33
- Low_logP (Gene EED): 0.06
- High_lfc (Gene EIF4A1): -0.23
- High_logP (Gene EIF4A1): 0.17
- Low_lfc (Gene EIF4A1): 0.22
- Low_logP (Gene EIF4A1): 0.27
- High_lfc (Gene EIF4A3): -0.5
- High_logP (Gene EIF4A3): 0.12
- Low_lfc (Gene EIF4A3): 0.83
- Low_logP (Gene EIF4A3): 3.36
- High_lfc (Gene ELOA2): 0.27
- High_logP (Gene ELOA2): 1.5
- Low_lfc (Gene ELOA2): -0.21
- Low_logP (Gene ELOA2): 0.02
- High_lfc (Gene ELOA3): -0.14
- High_logP (Gene ELOA3): 0.04
- Low_lfc (Gene ELOA3): -0.68
- Low_logP (Gene ELOA3): 0
- High_lfc (Gene ELOA3D): -0.17
- High_logP (Gene ELOA3D): 0.16
- Low_lfc (Gene ELOA3D): -0.44
- Low_logP (Gene ELOA3D): 0.05
- High_lfc (Gene ELOA): 0.14
- High_logP (Gene ELOA): 0.38
- Low_lfc (Gene ELOA): 0.01
- Low_logP (Gene ELOA): 0.08
- High_lfc (Gene ELOB): 0.32
- High_logP (Gene ELOB): 1.07
- Low_lfc (Gene ELOB): 0.26
- Low_logP (Gene ELOB): 0.54
- High_lfc (Gene ELOC): 0.2
- High_logP (Gene ELOC): 0.44
- Low_lfc (Gene ELOC): 0.2
- Low_logP (Gene ELOC): 0.9
- High_lfc (Gene ENC1): -0.31
- High_logP (Gene ENC1): 0
- Low_lfc (Gene ENC1): -0.06
- Low_logP (Gene ENC1): 0.22
- High_lfc (Gene EPHA4): -0.08
- High_logP (Gene EPHA4): 0.25
- Low_lfc (Gene EPHA4): -0.27
- Low_logP (Gene EPHA4): 0.02
- High_lfc (Gene ERCC8): -0.71
- High_logP (Gene ERCC8): 0.04
- Low_lfc (Gene ERCC8): -0.42
- Low_logP (Gene ERCC8): 0.02
- High_lfc (Gene ESCO1): 0.09
- High_logP (Gene ESCO1): 0.53
- Low_lfc (Gene ESCO1): -0.29
- Low_logP (Gene ESCO1): 0.05
- High_lfc (Gene FAM9A): -0.13
- High_logP (Gene FAM9A): 0.02
- Low_lfc (Gene FAM9A): -0.08
- Low_logP (Gene FAM9A): 0.64
- High_lfc (Gene FBXL2): -0.04
- High_logP (Gene FBXL2): 0.25
- Low_lfc (Gene FBXL2): -0.25
- Low_logP (Gene FBXL2): 0.03
- High_lfc (Gene FBXL3): -0.55
- High_logP (Gene FBXL3): 0
- Low_lfc (Gene FBXL3): 0
- Low_logP (Gene FBXL3): 0.15
- High_lfc (Gene FBXL4): -0.13
- High_logP (Gene FBXL4): 0.04
- Low_lfc (Gene FBXL4): 0.11
- Low_logP (Gene FBXL4): 0.32
- High_lfc (Gene FBXL5): -0.03
- High_logP (Gene FBXL5): 0.1
- Low_lfc (Gene FBXL5): -0.22
- Low_logP (Gene FBXL5): 0.05
- High_lfc (Gene FBXL6): -0.15
- High_logP (Gene FBXL6): 0.09
- Low_lfc (Gene FBXL6): -0.18
- Low_logP (Gene FBXL6): 0.14
- High_lfc (Gene FBXL7): -0.1
- High_logP (Gene FBXL7): 0.12
- Low_lfc (Gene FBXL7): 0.04
- Low_logP (Gene FBXL7): 0.13
- High_lfc (Gene FBXL8): -0.02
- High_logP (Gene FBXL8): 0.08
- Low_lfc (Gene FBXL8): -0.1
- Low_logP (Gene FBXL8): 0.23
- High_lfc (Gene FBXL12): -0.02
- High_logP (Gene FBXL12): 0.03
- Low_lfc (Gene FBXL12): 0.09
- Low_logP (Gene FBXL12): 0.2
- High_lfc (Gene FBXL13): 0.02
- High_logP (Gene FBXL13): 0.26
- Low_lfc (Gene FBXL13): 0.01
- Low_logP (Gene FBXL13): 0.21
- High_lfc (Gene FBXL14): -0.22
- High_logP (Gene FBXL14): 0.01
- Low_lfc (Gene FBXL14): -0.05
- Low_logP (Gene FBXL14): 0.13
- High_lfc (Gene FBXL15): 0.13
- High_logP (Gene FBXL15): 0.24
- Low_lfc (Gene FBXL15): 0.16
- Low_logP (Gene FBXL15): 0.21
- High_lfc (Gene FBXL16): 0.23
- High_logP (Gene FBXL16): 0.22
- Low_lfc (Gene FBXL16): 0.16
- Low_logP (Gene FBXL16): 0.37
- High_lfc (Gene FBXL17): -0.14
- High_logP (Gene FBXL17): 0.03
- Low_lfc (Gene FBXL17): -0.04
- Low_logP (Gene FBXL17): 0.45
- High_lfc (Gene FBXL18): 0.05
- High_logP (Gene FBXL18): 0.34
